We go through one molecule from US20090117654A1, “MEDIUM FOR CULTURING HEM[…] AND A METHOD OF CULTURING HEM[…]” (SAMSUNG ELECTRONICS CO., LTD., priority 2006, published 2009).

For experiment [1], the system named is bone marrow cells. Kind of experiment: Proliferation of bone marrow cells in serum-free basal medium. The class given is cell-based, human. The note with it: for proliferation of bone marrow cells, times more than the control medium: 100 μg/ml BAPN, two week culture. From the text: Effects of β-aminopropionitrile (hereinafter referred to as BAPN) on proliferation of bone marrow cells in serum-free medium were inspected. The bone marrow cells used in Example 1 mostly consists of hematopoietic cells and is a population of cells including hematopoietic cells.
First, proliferations of bone marrow cells were inspected in a serum-free medium in the presence and absence of fibronectin and collagen IV which are extracellular matrix that is known to influence proliferation of bone marrow cells.
A bone marrow monocyte (Catalog number ARM07F) was purchased from Stem Cell Technology Co., Ltd. The bone marrow mononuclear cells was obtained from a normal person, and CD34+ cells accounted for 1.6% of the cells. The bone marrow cells were maintained in a maintenance medium. The maintenance medium was a IMDM including 50 ng/ml of SCF, 50 ng/ml of IL-6, 50 ng/ml of TPO, 50 ng/ml of FL, 10 μg/ml of recombinant human insulin, 100 μg/ml of bovine serum albumin (BSA), 200 μg/ml of human transferrin, 0.1 mM of 2-mercaptoethanol, and 2 mM of L-glutamine.
(§1) 100 μl of the basal medium, and 100 μl of the basal medium with 100 μg/ml of BAPN were placed in each well of a 24 well plate, bone marrow cells were inoculated onto the media in the concentration of 1×10^5 cell/ml, and cultured for two weeks. The medium was exchanged every week. After the two week culture, adhesive cells were detached from the surface through trypsin treatment and the final cell concentration including floating cells was measured using a hemacytometer. In addition, the bottom of the 24 well plate was coated with collagen IV or fibronectin, and the effects of collagen IV or fibronectin were measured at the same time. The coating materials were dissolved to the concentration of from 5 to 50 μg/ml, the mixture was poured into the 24 wells to the amount of from 1 to 10 μg/cm^2 and reacted for one hour at room temperature.

The subject of experiment [2] is bone marrow cells. Kind of experiment: Proliferation of bone marrow cells in serum-free basal medium including IL-3. The experiment is classed as cell-based, human. The conditions noted are these: for proliferation of bone marrow cells, times more than the control medium including IL-3: 2 week culture. The procedure:
Effects of BAPN on proliferation of bone marrow cells in serum-free basal medium including IL-3 which induces divisions of hematopoietic stem cells were inspected.
A bone marrow monocyte (Catalog number ARM07F) was purchased from Stem Cell Technology Co., Ltd. The bone marrow monocyte was obtained from a normal person, and CD34+ cells accounted for 1.6% of the total monocytes. The bone marrow cells were maintained in a maintaining medium. The maintaining medium was a IMDM including 50 ng/ml of SCF, 50 ng/ml of IL-6, 50 ng/ml of TPO, 50 ng/ml of FL, 10 μg/ml of recombinant human insulin, 100 μg/ml of bovine serum albumin (BSA), 200 μg/ml of human transferrin, 0.1 mM of 2-mercaptoethanol, and 2 mM of L-glutamine.
as §1, with “the basal medium with 20 μg/ml of IL-3, and 100” for “the basal medium, and 100”, “medium with 20 μg/ml of IL-3 and 100 μg/ml” for “medium with 100 μg/ml”, “After the 2 week culture,” for “After the two week culture,”, “same time. In the coating, coating materials” for “same time. The coating materials”

Regarding `N#CCCN` [BAPN, β-aminopropionitrile], the entries for the “proliferation of bone marrow cells, times more than the control medium” value in the experiment on bone marrow cells [1] (collagen-coated 24 well plate), with bone marrow cells [1] (fibronectin-coated 24 well plate) and with bone marrow cells [1] (uncoated 24 well plate) were 5.1 times, 12.1 times and 5.4 times, respectively. Also, the “effect on proliferation of bone marrow cells” value is listed as “promoted the proliferation of bone marrow cells” in the experiment with bone marrow cells [1] (whether or not the culture vessel was coated with extracellular matrix) and “promoted the proliferation of bone marrow cells” with bone marrow cells [2] (with or without extracellular matrix coating, with or without cytokine (IL-3)). The “proliferation of bone marrow cells, times more than the control medium including IL-3” value in the experiment on bone marrow cells [2] (100 μg/ml BAPN with IL-3, collagen-coated 24 well plate) was determined as 2.6 times; with bone marrow cells [2] (100 μg/ml BAPN with IL-3, fibronectin-coated 24 well plate), 2.0 times; in the experiment on bone marrow cells [2] (100 μg/ml BAPN with IL-3, uncoated 24 well plate) it was 3.1 times.
